Reference: patent US10377770B2 (Novartis AG, priority 2015, dated 2019)

These compounds were tested against C-Raf FL (full length CRAF with Y340E and Y341E activating mutations, co-expressed with h14-3-3 zeta) (Homo sapiens (Human), UniProt P04049, Y340E/Y341E) (assay: In vitro Raf activity determination, AlphaScreen p-MEK readout, c-Raf (C-Raf FL)). Details: c-Raf approximately 4 nM, ATP 1 μM, pre-incubation 60 minutes, reaction 1 hour.
Type: biochemical
How it was run: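 Phosphorylation of kinase-dead biotinylated MEK1 (~10 nM) by C-Raf FL (~4 nM) read by AlphaScreen luminescence with anti-phospho-MEK1/2 after EDTA stop. ATP was 1 μM, with a 1 h reaction at room temperature. Compounds were pre-incubated with enzyme and substrate for 60 min in Tris/MgCl2 buffer, pH 7.5.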

C-Raf FL (full length CRAF with Y340E and Y341E activating mutations, co-expressed with h14-3-3 zeta), sequence (P04049 whole entry Y340E/Y341E): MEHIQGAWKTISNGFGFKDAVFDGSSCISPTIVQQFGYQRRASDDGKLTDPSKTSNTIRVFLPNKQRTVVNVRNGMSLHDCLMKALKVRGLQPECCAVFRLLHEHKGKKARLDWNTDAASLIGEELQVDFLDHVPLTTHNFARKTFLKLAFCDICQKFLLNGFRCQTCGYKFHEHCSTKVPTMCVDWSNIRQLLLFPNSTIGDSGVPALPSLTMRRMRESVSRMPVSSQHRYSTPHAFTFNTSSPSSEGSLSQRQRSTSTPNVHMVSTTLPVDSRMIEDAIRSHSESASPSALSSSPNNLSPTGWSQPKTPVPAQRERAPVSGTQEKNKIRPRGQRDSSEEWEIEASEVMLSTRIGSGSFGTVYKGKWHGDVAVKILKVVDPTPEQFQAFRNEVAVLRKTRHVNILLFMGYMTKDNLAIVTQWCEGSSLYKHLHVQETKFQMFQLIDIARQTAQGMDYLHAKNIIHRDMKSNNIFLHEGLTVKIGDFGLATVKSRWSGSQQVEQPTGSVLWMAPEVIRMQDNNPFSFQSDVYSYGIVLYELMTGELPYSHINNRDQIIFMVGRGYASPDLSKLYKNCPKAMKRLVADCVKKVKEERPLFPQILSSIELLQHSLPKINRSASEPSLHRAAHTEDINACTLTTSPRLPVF
C-Raf FL (full length CRAF with Y340E and Y341E activating mutations, co-expressed with h14-3-3 zeta), sequence (P63104 whole entry partner): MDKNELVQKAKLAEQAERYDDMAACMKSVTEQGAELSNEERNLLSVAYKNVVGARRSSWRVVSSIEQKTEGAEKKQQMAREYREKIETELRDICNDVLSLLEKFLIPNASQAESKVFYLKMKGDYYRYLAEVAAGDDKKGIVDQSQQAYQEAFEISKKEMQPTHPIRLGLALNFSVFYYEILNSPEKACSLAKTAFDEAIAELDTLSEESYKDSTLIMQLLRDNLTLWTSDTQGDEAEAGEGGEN

First: Cc1ccc(NC(=O)c2ccnc(C(F)(F)F)c2F)cc1-c1cnc2c(c1)C1CCOCC1OC(=O)N2CCO (stereo not drawn) [Example 331, 3-fluoro-N-(3-((4,11b-cis)-7-(2-hydroxyethyl)-6-oxo-2,4,4a,6,7,11b-hexahydro-1H-pyrano[4,3-f]pyrido[2,3-d][1,3]oxazepin-10-yl)-4-methylphenyl)-2-(trifluoromethyl) isonicotinamide]
Second: Cc1ccc(NC(=O)c2ccnc(C(C)(F)F)c2)cc1-c1cnc2c(c1)C1CCOCC1OC(=O)N2CCO (stereo not drawn) [Example 332, 2-(1,1-difluoroethyl)-N-(3-((4,11b-cis)-7-(2-hydroxyethyl)-6-oxo-2,4,4a,6,7,11b-hexahydro-1H-pyrano[4,3-f]pyrido[2,3-d][1,3]oxazepin-10-yl)-4-methylphenyl) isonicotinamide]
The IC50 of the first is 3.1-fold higher: 6.6 nM for the first, 2.1 nM for the second.

Compared with `Cc1ccc(NC(=O)c2ccnc(C(F)(F)F)c2)cc1-c1cnc2c(c1)N1CCOCC1C(C)(C)C2O` (stereo not shown) [Example 335, N-(3-(6-hydroxy-5,5-dimethyl-1,2,4,4a,5,6-hexahydro-[1.4]oxazino[4,3-a][1.5]naphthyridin-9-yl)-4-methylphenyl)-2-(trifluoromethyl) isonicotinamide], `Cc1ccc(NC(=O)c2ccnc(C(F)(F)F)c2F)cc1-c1cnc2c(c1)N1CCOCC1C(C)(C)C2O` (stereo not shown) [Example 336, 3-fluoro-N-(3-(6-hydroxy-5,5-dimethyl-1,2,4,4a,5,6-hexahydro-[1,4]oxazino[4,3-a][1,5]naphthyridin-9-yl)-4-methylphenyl)-2-(trifluoromethyl) isonicotinamide] is 2-fold higher in IC50: 0.1 nM for the first, 0.2 nM for the second. The first is the more potent here.

`Cc1ccc(NC(=O)c2ccnc(C(F)(F)F)c2F)cc1-c1cnc2c(c1)N1CCOCC1C(C)(C)C2O` (stereo not shown) [Example 337, 3-fluoro-N-(3-(6-hydroxy-5,5-dimethyl-1,2,4,4a,5,6-hexahydro-[1,4]oxazino[4,3-a][1,5]naphthyridin-9-yl)-4-methylphenyl)-2-(trifluoromethyl) isonicotinamide] and `Cc1ccc(NC(=O)c2ccnc(C(F)(F)F)c2F)cc1-c1ccc2c(c1)N1CCOC[C@H]1[C@](F)(CO)C2` [Example 380, 3-fluoro-N-(3-((4aS,5S)-5-fluoro-5-(hydroxymethyl)-1,2,4,4a,5,6-hexahydro-[1,4)oxazino[4,3-a]quinolin-9-yl)-4-methylphenyl)-2-(trifluoromethyl)isonicotinamide] are within 1.5-fold of each other in IC50: 0.3 nM for the first, 0.4 nM for the second.

`CCN1C(=O)C2(F)COCC[C@@H]2c2cc(-c3cc(NC(=O)c4ccnc(C(C)(F)F)c4)ccc3C)cnc21` (stereo partly drawn) [Example 338, 2-(1,1-difluoroethyl)-N-(3-((10bR)-6-ethyl-4a-fluoro-5-oxo-2,4,4a,5,6,10b-hexahydro-1H-pyrano[3,4-c][1,8]naphthyridin-9-yl)-4-methylphenyl)isonicotinamide] and `CCN1C(=O)C2(F)COCC[C@@H]2c2cc(-c3cc(NC(=O)c4ccnc(C(F)(F)F)c4)ccc3C)cnc21` (stereo partly drawn) [Example 339, N-(3-((10bR)-6-ethyl-4a-fluoro-5-oxo-2,4,4a,5,6,10b-hexahydro-1H-pyrano[3,4-c][1,8]naphthyridin-9-yl)-4-methylphenyl)-2-(trifluoromethyl) isonicotinamide] are the same in IC50: 0.5 nM for the first, 0.5 nM for the second.

First: CCN1C(=O)C2(F)COCC[C@@H]2c2cc(-c3cc(NC(=O)c4cccc(C(F)(F)F)c4)cnc3C)cnc21 (stereo partly drawn) [Example 340, N-(5-((10bR)-6-ethyl-4a-fluoro-5-oxo-2,4,4a,5,6,10b-hexahydro-1H-pyrano[3,4-c][1,8]naphthyridin-9-yl)-6-methylpyridin-3-yl)-3-(trifluoromethyl) benzamide]
Second: CCN1C(=O)C2COCCC2(C)c2cc(-c3cc(NC(=O)c4cccc(C(F)(F)F)c4)cnc3C)cnc21 (stereo not drawn) [Example 349, N-(5-((4a,10b- trans)-6-ethyl-10b-methyl-5-oxo-2,4,4a,5,6,10b-hexahydro-1H-pyrano[3,4-c][1,8]naphthyridin-9-yl)-6-methylpyridin-3-yl)-3-(trifluoromethyl) benzamide]
The IC50 of the first is 2.3-fold lower: 1.3 nM for the first, 3 nM for the second.

First: CCN1C(=O)C2COCCC2(C)c2cc(-c3cc(NC(=O)c4ccnc(C(F)(F)F)c4F)ccc3C)cnc21 (stereo not drawn) [Example 347, N-(3-((4a,10b- trans)-6-ethyl-10b-methyl-5-oxo-2,4,4a.5,6,10b-hexahydro-1H-pyrano[3,4-c][1,8]naphthyridin-9-yl)-4-methylphenyl)-3-fluoro-2-(trifluoromethyl) isonicotinamide]
Second: CCN1c2ncc(-c3cc(NC(=O)c4ccnc(C(F)(F)F)c4)ccc3C)cc2[C@@H]2CCOC[C@H]2C12CC2 [Example 361, N-(3-((4a′R,10b′R)-6′-ethyl-1′,2′,4′,4a′,6′,10b′-hexahydrospiro[cyclopropane-1,5′-pyrano[3,4-c][1,8]naphthyridin]-9′-yl)-4-methylphenyl)-2-(trifluoromethyl)isonicotinamide]
The IC50 of the first is 3-fold lower: 0.3 nM for the first, 0.9 nM for the second.

`CCN1C(=O)C2COCCC2(C)c2cc(-c3cc(NC(=O)c4ccnc(C(F)(F)F)c4F)ccc3C)cnc21` (stereo not drawn) [Example 348, N-(3-((4a,10b- trans)-6-ethyl-10b-methyl-5-oxo-2,4,4a,5,6,10b-hexahydro-1H-pyrano[3,4-c][1,8]naphthyridin-9-yl)-4-methylphenyl)-3-fluoro-2-(trifluoromethyl) isonicotinamide] and `Cc1ccc(NC(=O)c2ccnc(C(F)(F)F)c2)cc1-c1cnc2c(c1)N1CCOC[C@H]1[C@](C)(C#N)C2` [Example 377, N-(3-((4aR,5R)-5-cyano-5-methyl-1,2,4,4a,5,6-hexahydro-[1,4]oxazino[4,3-a][1,5]naphthyridin-9-yl)-4-methylphenyl)-2-(trifluoromethyl)isonicotinamide] are within 1.5-fold of each other in IC50: 0.7 nM for the first, 0.9 nM for the second.

First: Cc1ncc(NC(=O)c2cccc(C(C)(F)F)c2)cc1-c1ccc2c(c1)N1CCOC[C@H]1[C@](F)(CO)C2 [Example 367, 3-(1,1-difluoroethyl)-N-(5-((4aS,5S)-5-fluoro-5-(hydroxymethyl)-1,2,4,4a,5,6-hexahydro-[1,4]oxazino[4,3-a]quinolin-9-yl)-6-methylpyridin-3-yl)benzamide]
Second: Cc1ncc(NC(=O)c2cccc(C(C)(F)F)c2)cc1-c1ccc2c(c1)N1CCOC[C@@H]1[C@@](F)(CO)C2 [Example 368, 3-(1,1-difluoroethyl)-N-(5-((4aR,5R)-5-fluoro-5-(hydroxymethyl)-1,2,4,4a,5,6-hexahydro-[1,4]oxazino[4,3-a]quinolin-9-yl)-6-methylpyridin-3-yl)benzamide]
The IC50 of the first is 10-fold higher: 1 nM for the first, 0.1 nM for the second.

First: Cc1ccc(NC(=O)c2ccnc(C(C)(F)F)c2)cc1-c1ccc2c(c1)N1CCOC[C@H]1[C@](F)(CO)C2 [Example 369, 2-(1,1-difluoroethyl)-N-(3-((4aS,5S)-5-fluoro-5-(hydroxymethyl)-1,2,4,4a,5,6-hexahydro-[1,4]oxazino[4,3-a]quinolin-9-yl)-4-methylphenyl)isonicotinamide]
Second: Cc1ccc(NC(=O)c2ccnc(C(C)(F)F)c2)cc1-c1ccc2c(c1)N1CCOC[C@@H]1[C@@](F)(CO)C2 [Example 370, 2-(1,1-difluoroethyl)-N-(3-((4aR,5R)-5-fluoro-5-(hydroxymethyl)-1,2,4,4a,5,6-hexahydro-[1,4]oxazino[4,3-a]quinolin-9-yl)-4-methylphenyl)isonicotinamide]
The IC50 of the first is 3-fold higher: 0.3 nM for the first, 0.1 nM for the second.

`Cc1ccc(NC(=O)c2ccnc(C(C)(F)F)c2)cc1-c1ccc2c(c1)N1CCOC[C@H]1[C@@](F)(CO)C2` [Example 371, 2-(1,1-difluoroethyl)-N-(3-((4aS,5R)-5-fluoro-5-(hydroxymethyl)-1,2,4,4a,5,6-hexahydro-[1,4]oxazino[4,3-a]quinolin-9-yl)-4-methylphenyl)isonicotinamide] and `Cc1ccc(NC(=O)c2ccnc(C(C)(F)F)c2)cc1-c1ccc2c(c1)N1CCOC[C@@H]1[C@](F)(CO)C2` [Example 372, 2-(1,1-difluoroethyl)-N-(3-((4aR,5S)-5-fluoro-5-(hydroxymethyl)-1,2,4,4a,5,6-hexahydro-[1,4]oxazino[4,3-a]quinolin-9-yl)-4-methylphenyl)isonicotinamide] are within 1.5-fold of each other in IC50: 0.2 nM for the first, 0.3 nM for the second.

Compared with `Cc1ccc(NC(=O)c2ccnc(C(C)(F)F)c2)cc1-c1ccc2c(c1)N1CCOC[C@H]1[C@@](C)(C#N)C2` [Example 373, N-(3-((4aR,5S)-5-cyano-5-methyl-1,2,4,4a,5,6-hexahydro-[1,4]oxazino[4,3-a]quinolin-9-yl)-4-methylphenyl)-2-(1,1-difluoroethyl)isonicotinamide], `Cc1ccc(NC(=O)c2ccnc(C(C)(F)F)c2)cc1-c1ccc2c(c1)N1CCOC[C@@H]1[C@](C)(C#N)C2` [Example 374, N-(3-((4aS,5R)-5-cyano-5-methyl-1,2,4,4a,5,6-hexahydro-[1,4]oxazino[4,3-a]quinolin-9-yl)-4-methylphenyl)-2-(1,1-difluoroethyl)isonicotinamide] is 2-fold lower in IC50: 0.4 nM for the first, 0.2 nM for the second.

`Cc1ncc(NC(=O)c2ccnc(C(C)(F)F)c2)cc1-c1ccc2c(c1)N1CCOC[C@H]1[C@@](C)(C#N)C2` [Example 375, N-(5-((4aR,5S)-5-cyano-5-methyl-1,2,4,4a,5,6-hexahydro-[1,4]oxazino[4,3-a]quinolin-9-yl)-6-methylpyridin-3-yl)-2-(1,1-difluoroethyl)isonicotinamide] and `Cc1ncc(NC(=O)c2ccnc(C(C)(F)F)c2)cc1-c1ccc2c(c1)N1CCOC[C@@H]1[C@](C)(C#N)C2` [Example 376, N-(5-((4aS,5R)-5-cyano-5-methyl-1,2,4,4a,5,6-hexahydro-[1,4]oxazino[4,3-a]quinolin-9-yl)-6-methylpyridin-3-yl)-2-(1,1-difluoroethyl)isonicotinamide] are within 1.5-fold of each other in IC50: 0.4 nM for the first, 0.5 nM for the second.

Work on `Cc1ccc(NC(=O)c2ccnc(C(F)(F)F)c2)cc1-c1cnc2c(c1)N1CCOC[C@@H]1[C@@](C)(C#N)C2` [Example 378, N-(3-((4aS,5S)-5-cyano-5-methyl-1,2,4,4a,5,6-hexahydro-[1,4]oxazino[4,3-a][1,5]naphthyridin-9-yl)-4-methylphenyl)-2-(trifluoromethyl)isonicotinamide] yielded an IC50 of 0.2 nM.
